Results taken from patent publication US10124004B2, “Pyrido[3,4-d]pyrimidine derivative and pharmaceutically acceptable salt thereof” (Teijin Pharma Limited, priority 2015, dated 2018).
pIC50: −log10 of the molar value. Where two headings read alike, the source gives them in different places.

Assays:
Type in all cases: biochemical
CDK4/cyclin D3 = biological target: T1, CDK4/cyclin D3 (Homo sapiens, UniProt P11802); test: Human CDK4/cyclin D3 inhibitory activity (QS S Assist CDK4/Cyclin D3_FP Kit, IMAP fluorescence polarization)
T1 construct: purchased Carna Biosciences, Inc. QS S Assist CDK4/Cyclin D3_FP Kit
T1 sequence (P11802 whole entry): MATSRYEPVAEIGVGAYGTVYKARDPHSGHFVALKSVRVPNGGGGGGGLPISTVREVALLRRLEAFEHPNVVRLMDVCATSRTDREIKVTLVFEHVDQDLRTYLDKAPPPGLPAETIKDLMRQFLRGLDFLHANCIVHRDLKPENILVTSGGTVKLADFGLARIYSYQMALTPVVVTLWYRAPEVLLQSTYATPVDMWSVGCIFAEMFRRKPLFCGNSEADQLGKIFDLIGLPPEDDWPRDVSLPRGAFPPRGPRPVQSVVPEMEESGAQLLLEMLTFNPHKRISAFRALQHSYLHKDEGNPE
T1 sequence (P30281 whole entry partner): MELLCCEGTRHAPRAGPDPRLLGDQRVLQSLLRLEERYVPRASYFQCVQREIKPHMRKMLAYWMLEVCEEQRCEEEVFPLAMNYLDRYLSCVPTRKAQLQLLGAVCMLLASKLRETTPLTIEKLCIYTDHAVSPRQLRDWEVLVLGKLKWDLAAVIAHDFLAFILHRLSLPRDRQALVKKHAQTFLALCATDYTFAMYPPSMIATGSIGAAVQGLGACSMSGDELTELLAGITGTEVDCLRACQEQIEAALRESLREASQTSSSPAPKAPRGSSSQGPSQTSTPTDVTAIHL
How it was run: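 IMAP fluorescence polarization kit: CDK4/cyclin D3 at 12.5-25 ng/well with kit ATP/substrate/metal mix in 20 mM HEPES pH 7.4, 0.01% Tween20, 2 mM DTT, 45 min at room temperature. FP read at 485/535 nm after 30 min binding; IC50 from dose-response fit of percent inhibition versus enzyme and no-enzyme controls.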

CDK2/cyclin A2 = biological target: T2, CDK2/cyclin A2 (Homo sapiens, UniProt P24941); test: Human CDK2/cyclin A2 inhibitory activity (QS S Assist CDK2/Cyclin A2_FP Kit, IMAP fluorescence polarization)
T2 construct: purchased Carna Biosciences, Inc. QS S Assist CDK2/Cyclin A2_FP Kit
How it was run: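 Kinase activity read as fluorescence polarization (485/535 nm) after phosphorylated fluorescent substrate binds IMAP reagent (30 min, RT, dark). Enzyme (2.5 ng/well) reacted 60 min at RT with ATP/substrate/metal in HEPES pH 7.4 buffer with Tween 20 and DTT; no-enzyme wells define 0% activity; IC50 by curve fit.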

CDK6/cyclin D3 = CDK6/cyclin D3 (Homo sapiens, UniProt Q00534); test: Human CDK6/cyclin D3 inhibitory activity (off-chip mobility shift assay); details: 50% inhibitory concentration against CDK6/cyclin D3; 300 μM ATP, room temperature, five hours; read-out: CDK6 Activity Symbol
Sequence of CDK6/cyclin D3 (Q00534 whole entry): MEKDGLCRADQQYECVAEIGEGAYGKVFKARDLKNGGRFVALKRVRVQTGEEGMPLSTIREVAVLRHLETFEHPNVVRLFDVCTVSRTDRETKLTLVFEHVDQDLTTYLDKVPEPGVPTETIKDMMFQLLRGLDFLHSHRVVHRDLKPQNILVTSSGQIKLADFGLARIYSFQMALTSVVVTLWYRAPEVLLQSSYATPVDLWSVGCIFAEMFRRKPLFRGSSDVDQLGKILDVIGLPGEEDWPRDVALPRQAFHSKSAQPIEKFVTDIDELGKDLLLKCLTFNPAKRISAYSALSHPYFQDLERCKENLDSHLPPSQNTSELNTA
Sequence of CDK6/cyclin D3 (P30281 whole entry partner): as the sequence (P30281 whole entry partner) above
Protocol: Human CDK6/Cyclin D3 Inhibitory Activity
CDK6/cyclin D3 inhibitory activity was determined by the off-chip mobility shift assay (MSA). The MSA separates proteins from one another on the basis of a difference in electrophoretic mobility depending on the molecular weight or electric charge of the proteins. The kinase activity is determined by quantifying the degree of phosphorylation through electrophoretic analysis of a positive to negative change in electric charge of the substrate phosphorylated by the kinase.
Each solution was prepared with an assay buffer containing 20 mM HEPES (pH 7.5), 0.01% Triton X-100, and 2 mM dithiothreitol. A test compound solution was prepared by dilution of the test compound with dimethyl sulfoxide (DMSO) to a concentration 100 times higher than the final concentration and then 25-fold dilution with the assay buffer to a concentration four times higher than the final concentration. An ATP/substrate/metal solution was prepared to have a concentration four times higher than the final concentration. An enzyme solution was prepared to have a concentration twice higher than the final concentration. The final enzyme concentration was adjusted to an appropriate level on the basis of the enzyme activity signal and the inhibitory activity of a positive control compound.
The test compound solution (5 μL/well) and the ATP/substrate/metal solution (5 μL/well) were added to a 384-well plate, and the enzyme solution or the assay buffer (10 μL/well) was added to the plate (total amount of the reaction mixture: 20 μL/well) for initiation of enzymatic reaction. […] The reaction was performed at room temperature for five hours, and a termination buffer (QuickScout Screening Assist MSA, manufactured by Carna Biosciences, Inc.) (60 μL/well) was then added to the plate for termination of the reaction. Subsequently, the substrate peptide and the phosphorylated peptide in the reaction mixture were separated from each other and quantified with LabChip 3000 (manufactured by Caliper Lifesciences). The kinase reaction was evaluated by the product ratio (P/(P+S)) calculated from the peak height (S) of the substrate peptide and the peak height (P) of the phosphorylated peptide.
The percent inhibition of enzyme activity was calculated for each test compound (note: enzyme activity=100% in the case of addition of the enzyme solution and addition of DMSO instead of the test compound solution, whereas enzyme activity=0% in the case of addition of the assay buffer instead of the enzyme solution and addition of DMSO instead of the test compound solution). The percent inhibition of enzyme activity was fitted to a dose-response curve, to determine a 50% inhibitory concentration against CDK6/cyclin D3.
In each table, “+++” corresponds to IC50<10 nM, “++” 10 nM≤IC50<100 nM, and “+” 100 nM≤IC50.

[1] = 50% inhibitory concentration against CDK4/cyclin D3, given as class symbol
[2] = 50% inhibitory concentration against CDK2/cyclin A2, given as class symbol
[3] = Human CDK4/cyclin D3 inhibitory activity, read-out: CDK4 Activity symbol
[4] = Human CDK2/cyclin A2 inhibitory activity, read-out: CDK2 Activity symbol

SMILES	pIC50 (CDK4/cyclin D3; [1])	pIC50 (CDK2/cyclin A2; [2])	pIC50 (CDK6/cyclin D3)	pIC50 (CDK4/cyclin D3; [3])	pIC50 (CDK2/cyclin A2; [4])
CC(C)Nc1nc(C2CCCO2)cc2cnc(Nc3ccc(N4CCNCC4=O)cn3)nc12 (single isomer, unassigned) [Compound 672]	> 8.00	≤ 7.00	7.00 to 8.00		
c1cc(N2CCNCC2)nnc1Nc1ncc2cc(C3CCOC3)nc(N[C@H]3CCCOC3)c2n1 (single isomer, unassigned) [Compound 938]	> 8.00	≤ 7.00	7.00 to 8.00		
c1cc(Nc2ncc3cc(C4CCOC4)nc(N[C@H]4CCCOC4)c3n2)ncc1CN1CCNCC1 (single isomer, unassigned) [Compound 941]	> 8.00	≤ 7.00	> 8.00		
CC(C)Nc1nc([C@@H](C)O)cc2cnc(Nc3ccc(N4CCNCC4)cn3)nc12 [Compound 16]			> 8.00	> 8.00	≤ 7.00
CO[C@H](C)c1cc2cnc(Nc3ccc(CN4CCNCC4)cn3)nc2c(NC(C)C)n1 [Compound 220]			7.00 to 8.00	> 8.00	≤ 7.00
COCC(C)(C)Nc1nc([C@@H](C)O)cc2cnc(Nc3ccc(CN4CCNCC4)cn3)nc12 [Compound 221]			7.00 to 8.00	> 8.00	≤ 7.00
CC(C)Nc1nc([C@@H](C)O)cc2cnc(Nc3ccc(N4CCNCC4=O)cn3)nc12 [Compound 230]			> 8.00	> 8.00	≤ 7.00
CO[C@H](C)c1cc2cnc(Nc3ccc(CN4CCNCC4)cn3)nc2c(N[C@H]2CCCOC2)n1 [Compound 300]			7.00 to 8.00	> 8.00	≤ 7.00
CO[C@H](C)c1cc2cnc(Nc3ccc(N4CCNCC4)nn3)nc2c(N[C@H]2CCCOC2)n1 [Compound 304]			7.00 to 8.00	> 8.00	≤ 7.00
CO[C@H](C)c1cc2cnc(Nc3cnc(N4CCNCC4)cn3)nc2c(NC(C)C)n1 [Compound 363]			7.00 to 8.00	> 8.00	≤ 7.00
Cc1nc(Nc2ncc3cc([C@@H](C)O)nc(NC(C)C)c3n2)ccc1N1CCNCC1=O [Compound 749]	> 8.00	≤ 7.00	7.00 to 8.00		
C[C@@H](O)c1cc2cnc(Nc3ccc4c(n3)CCNC4)nc2c(N[C@H]2CCCOC2)n1 [Compound 778]	> 8.00	≤ 7.00	7.00 to 8.00		
CCCNc1nc([C@@H](C)OC)cc2cnc(Nc3ccc(CN4CCNCC4)cn3)nc12 [Compound 818]	> 8.00	≤ 7.00	7.00 to 8.00		
CCCNc1nc([C@@H](C)OC)cc2cnc(Nc3ccc(N4CCNCC4)nn3)nc12 [Compound 819]	> 8.00	≤ 7.00	7.00 to 8.00		
CC(C)Nc1nc(C2(C)COC2)cc2cnc(Nc3ccc(N4CCNCC4)nn3)nc12 [Compound 879]	> 8.00	≤ 7.00	> 8.00		
CC(C)N(C)c1nc([C@@H](C)O)cc2cnc(Nc3ccc(N4CCNCCC4=O)cn3)nc12 [Compound 904]	> 8.00	≤ 7.00	> 8.00		
CCC(O)c1cc2cnc(Nc3ccc(N4CCNCC4=O)cn3)nc2c(NC(C)C)n1 (stereo not shown) [Compound 1036]	> 8.00	≤ 7.00	7.00 to 8.00		

The next lines start with the values.

pIC50 (CDK4/cyclin D3; [1])	pIC50 (CDK2/cyclin A2; [2])	pIC50 (CDK6/cyclin D3)	pIC50 (CDK4/cyclin D3; [3])	pIC50 (CDK2/cyclin A2; [4])	SMILES
		> 8.00			CC(C)Nc1nc(C(F)F)cc2cnc(Nc3ccc(N4CCNCC4)cn3)nc12 [Compound 3, 6-difluoromethyl-8-isopropyl-2-(5-piperazin-1-ylpyridin-2-yl)pyrido[3,4-d]pyrimidine-2,8-diamine]
		7.00 to 8.00	> 8.00	≤ 7.00	CO[C@H](C)c1cc2cnc(Nc3ccc(N4CCNCC4)nn3)nc2c(NC(C)C)n1 [Compound 217, (R)—N8-isopropyl-6-(1-methoxyethyl)-N2-(6-(piperazin-1-yl)pyridazin-3-yl)pyrido[3,4-d]pyrimidine-2,8-diamine]
> 8.00	≤ 7.00	> 8.00			CC(C)Nc1nc(C2(C)COC2)cc2cnc(Nc3ccc(N4CCNCC4=O)cn3)nc12 [Compound 779]
> 8.00	≤ 7.00	7.00 to 8.00			CCNc1nc([C@@H](C)O)cc2cnc(Nc3ccc(CN4CCN(CCO)CC4)cn3)nc12 [Compound 843]
> 8.00	≤ 7.00	> 8.00			CCCNc1nc([C@@H](C)O)cc2cnc(Nc3ccc(CN4CCN(CCO)CC4)cn3)nc12 [Compound 844]
> 8.00	≤ 7.00	> 8.00			CC(C)Nc1nc(C2(C)COC2)cc2cnc(Nc3ccc(CN4CCNCC4)cn3)nc12 [Compound 883]
> 8.00	≤ 7.00	> 8.00			CC(C)Nc1nc([C@@H](C)O)cc2cnc(Nc3ccc4c(n3)CCN(CCO)C4)nc12 [Compound 929]
> 8.00	≤ 7.00	> 8.00			CC(C)Nc1nc([C@@H](C)O)cc2cnc(Nc3ccc4c(n3)CCN(CCN(C)C)C4)nc12 [Compound 954]
